Results published in patent US20180311220A1, “TREATMENT OF CANCERS WITH ACQUIRED RESISTANCE TO KIT INHIBITORS” (Bayer HealthCare LLC, priority 2007, published 2018).

Experiments:
Type in all cases: cell-based, murine
[1] = system: Ba/F3 cells expressing human c-KIT exon 11 deletion + Y823D; assay: Ba/F3 cell proliferation assay (CellTiter-Glo), c-KIT exon 11 deletion + Y823D; details: BaF3; Exon 11 + Y823D; n ≥ 3; 72 h incubation; read-out: Average IC50 for c-KIT-expressing Ba/F3 cellular proliferation, Exon 11 + Y823D
Protocol: (§1) The cDNA encoding full length human c-KIT with a deletion in exon 11 that removed amino acid residues 557-558 was ligated into the mammalian expression vector pClneo (Promega). […] All mutations were confirmed by DNA sequencing.
(§2) Selective pressure was applied to the transfected cells by removing IL-3 from the culture medium. After IL-independent populations, further selective pressure was applied by also growing the cells in the presence of 1 mg/mL G418. […] The stable pools were further characterized by sequencing genomic DNA to confirm the presence of the transfected c-KIT cDNA.
(§3) This assay utilizes cellular ATP as a marker for cell proliferation/viability. On day 1, Ba/F3 cells were plated in 96 well dishes (Costar 3603) at 10,000 cells per well in 10% FBS in RPMI medium with 1 mg/ml G418. […] Plates were then incubated in a 5% CO2 incubator at 37° C. for 3 days. […] The cells were then incubated on a shaker for 5 minutes at room temperature, and luminescence was measured on a Victor 5 (Perkin Elmer) spectrophotometer.
(§4) Growth inhibition was measured by comparing luminescence signal from treated vs. untreated cells in assay plates, and the IC50 analysis of cell proliferation inhibition by compounds was analyzed using Analyze 5 in-house software. The IC50 values are mean values calculated from at least three experiments.

[2] = system: Ba/F3 cells expressing human c-KIT with exon 11 deletion (residues 557-558); assay: Ba/F3 cell proliferation assay (CellTiter-Glo), c-KIT exon 11 deletion; details: BaF3, n ≥ 3, 72 h incubation, read-out: Average IC50 for c-KIT-expressing Ba/F3 cellular proliferation, Exon 11 Deletion
Protocol: as §1, §2, §3, §4

[3] = system: Ba/F3 cells expressing human c-KIT exon 11 deletion + T6701; assay: Ba/F3 cell proliferation assay (CellTiter-Glo), c-KIT exon 11 deletion + T6701; details: BaF3; Exon 11 +T6701; n ≥ 3; 72 h incubation; read-out: Average IC50 for c-KIT-expressing Ba/F3 cellular proliferation, Exon 11 +T6701
Protocol: as §1, §2, §3, §4

[4] = system: Ba/F3 cells expressing human c-KIT exon 11 deletion + D816G; assay: Ba/F3 cell proliferation assay (CellTiter-Glo), c-KIT exon 11 deletion + D816G; details: BaF3; Exon 11 + D816G; n ≥ 3; 72 h incubation; read-out: Average IC50 for c-KIT-expressing Ba/F3 cellular proliferation, Exon 11 + D816G
Protocol: as §1, §2, §3, §4

[5] = system: Ba/F3 cells expressing human c-KIT exon 11 deletion + N822K; assay: Ba/F3 cell proliferation assay (CellTiter-Glo), c-KIT exon 11 deletion + N822K; details: BaF3; Exon 11 + N822K; n ≥ 3; 72 h incubation; read-out: Average IC50 for c-KIT-expressing Ba/F3 cellular proliferation, Exon 11 + N822K
Protocol: as §1, §2, §3, §4

[6] = system: Ba/F3 cells expressing human c-KIT exon 11 deletion + V654A; assay: Ba/F3 cell proliferation assay (CellTiter-Glo), c-KIT exon 11 deletion + V654A; details: BaF3; Exon 11 + V654A; n ≥ 3; 72 h incubation; read-out: Average IC50 for c-KIT-expressing Ba/F3 cellular proliferation, Eson 11 + V654A
Protocol: as §1, §2, §3, §4

With `CNC(=O)c1cc(Oc2ccc(NC(=O)Nc3ccc(Cl)c(C(F)(F)F)c3)c(F)c2)ccn1` [DAST, 4{4-[3-(4-chloro-3-trifluoromethylphenyl)-ureido]-3-fluorophenoxy}-pyridine-2-carboxylic acid methylamide] the IC50 [1] was 129 nM, the IC50 [2] was 7 nM and the IC50 [3] was 19 nM. It also gave an IC50 [4] of 14 nM, an IC50 [5] of 12 nM and an IC50 [6] of 38 nM.
